Key:
[1] = target: T1, Alpha-1B adrenergic receptor (Homo sapiens, UniProt P35368); assay: In vitro binding affinity towards cloned human Alpha-1B adrenergic receptor
T1 sequence (P35368 whole entry): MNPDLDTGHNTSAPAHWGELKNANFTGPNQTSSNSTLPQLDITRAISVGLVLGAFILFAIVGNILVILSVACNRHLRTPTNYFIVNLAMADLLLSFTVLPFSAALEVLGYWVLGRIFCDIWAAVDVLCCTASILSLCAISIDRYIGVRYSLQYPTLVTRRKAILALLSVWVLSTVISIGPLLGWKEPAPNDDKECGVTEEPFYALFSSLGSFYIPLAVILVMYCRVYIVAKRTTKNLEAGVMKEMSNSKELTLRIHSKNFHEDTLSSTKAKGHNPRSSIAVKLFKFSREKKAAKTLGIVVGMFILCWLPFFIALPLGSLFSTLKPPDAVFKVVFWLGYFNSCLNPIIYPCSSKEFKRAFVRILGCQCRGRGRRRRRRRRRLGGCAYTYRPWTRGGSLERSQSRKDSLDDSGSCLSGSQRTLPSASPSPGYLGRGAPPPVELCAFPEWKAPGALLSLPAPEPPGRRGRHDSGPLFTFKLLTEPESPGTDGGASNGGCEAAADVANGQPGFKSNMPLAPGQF

[2] = target: T2, Alpha-1D adrenergic receptor (Homo sapiens, UniProt P25100); assay: In vitro binding affinity towards cloned human Alpha-1D adrenergic receptor
T2 sequence (P25100 whole entry): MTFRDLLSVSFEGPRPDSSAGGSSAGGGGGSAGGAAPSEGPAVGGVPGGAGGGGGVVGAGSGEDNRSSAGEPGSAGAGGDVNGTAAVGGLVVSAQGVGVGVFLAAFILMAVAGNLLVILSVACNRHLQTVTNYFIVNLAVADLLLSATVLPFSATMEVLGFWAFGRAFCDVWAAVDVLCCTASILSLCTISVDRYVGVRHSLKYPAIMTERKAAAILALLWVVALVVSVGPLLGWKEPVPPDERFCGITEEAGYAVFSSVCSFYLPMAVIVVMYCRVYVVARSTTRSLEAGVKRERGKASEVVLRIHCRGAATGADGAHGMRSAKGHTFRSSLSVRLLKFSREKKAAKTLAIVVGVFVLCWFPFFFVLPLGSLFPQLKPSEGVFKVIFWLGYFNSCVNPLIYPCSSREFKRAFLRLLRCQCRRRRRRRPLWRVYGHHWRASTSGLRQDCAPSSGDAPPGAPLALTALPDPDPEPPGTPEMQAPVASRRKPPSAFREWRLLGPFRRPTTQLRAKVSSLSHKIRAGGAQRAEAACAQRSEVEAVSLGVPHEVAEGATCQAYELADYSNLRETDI

[3] = target: T3, Alpha-1A adrenergic receptor (Homo sapiens, UniProt P35348); assay: In vitro binding affinity towards cloned human Alpha-1A adrenergic receptor
T3 sequence (P35348 whole entry): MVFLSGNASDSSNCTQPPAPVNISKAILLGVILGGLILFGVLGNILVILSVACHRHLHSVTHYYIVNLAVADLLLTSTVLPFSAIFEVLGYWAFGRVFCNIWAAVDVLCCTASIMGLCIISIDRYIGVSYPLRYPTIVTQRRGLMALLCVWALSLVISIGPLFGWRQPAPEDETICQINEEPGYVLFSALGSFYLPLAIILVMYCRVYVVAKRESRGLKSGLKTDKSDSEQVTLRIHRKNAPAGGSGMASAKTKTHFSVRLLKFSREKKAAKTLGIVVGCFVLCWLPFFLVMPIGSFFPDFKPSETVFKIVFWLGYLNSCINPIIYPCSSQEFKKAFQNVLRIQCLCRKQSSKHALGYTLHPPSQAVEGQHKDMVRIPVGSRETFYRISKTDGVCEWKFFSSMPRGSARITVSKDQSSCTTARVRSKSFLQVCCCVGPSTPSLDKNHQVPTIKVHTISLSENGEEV

[4] = Bioavailability in rat (Sprague-Dawley) (male) (dose 1 mg/kg i.v. and 3 mg/kg p.o.) measured from 0.3 to 6 hr; format: ADME, organism-based; details: in vivo, po
[5] = Half-life in rats; format: ADME, organism-based; details: rat, in vivo
[6] = Half-life in dogs; format: ADME, organism-based, Canis lupus familiaris; details: dog, in vivo
[7] = Bioavailability in dog (Beagle) (male) (dose 3 mg/kg i.v. and 10 mg/kg p.o.) measured from 1 to 24 hr; format: ADME, organism-based, Canis lupus familiaris; details: in vivo, po

SMILES | Ki [1] [nM] | Ki [2] [nM] | Ki [3] [nM] | bioavailability [4] [%] | half-life [5] [h] | half-life [6] [h] | bioavailability [7] [%]
Cc1ccc(C2(c3ccc(C)cc3)OC(=O)N(CCCN3CCC(C#N)(c4ccccc4C)CC3)C2=O)cc1 | > 2000 | > 5000 | 77 | – | – | – | –
COC(=O)C1(c2ccccc2)CCN(CCCNC(=O)C(c2ccc(C)cc2)c2ccc(C)cc2)CC1 | 170 | 975 | 17 | – | – | – | –
Cc1ccc(C2(c3ccc(C)cc3)CC(=O)N(CC(O)CN3CCC(C#N)(c4ccccc4C)CC3)C2=O)cc1 (centres undefined) | 1500 | 4100 | 9.7 | – | – | – | –
Cc1ccc(C(O)(C(=O)NCCCN2CCC(C#N)(c3ccccc3C)CC2)c2ccc(C)cc2)cc1 | 570 | 1500 | 2 | < 1 | 1.3 | – | –
Cc1ccc(C2(c3ccc(C)cc3)CC(=O)N(CCCN3CCC(C#N)(c4ccccc4C)CC3)C2=O)cc1 | 1900 | 1500 | 1.7 | 18 | 2.5 | 1.3 | 8
Cc1ccc(C2(c3ccc(C)cc3)CC(=S)N(CCCN3CCC(C#N)(c4ccccc4Cl)CC3)C2=O)cc1 | > 2000 | > 5000 | 220 | – | – | – | –
Cc1ccc(C(O)(C(=O)NCCCN2CCC(C#N)(c3ccccc3)CC2)c2ccc(C)cc2)cc1 | 1800 | 4800 | 5.7 | – | – | – | –
Cc1ccc(C2(c3ccc(C)cc3)CC(=O)N(CCCN3CCC(C#N)(c4ccccc4Cl)CC3)C2=O)cc1 | 98 | 220 | 0.48 | 19 | 0.66 | 1.7 | 11
